According to the supplement of paper PMC9663587:

Experiments:
BSJ-03-123 = compound: CC(=O)c1c(C)c2cnc(Nc3ccc(N4CCN(CCOCCOCCOCCNC(=O)COc5cccc6c5C(=O)N(C5CCC(=O)NC5=O)C6=O)CC4)cn3)nc2n(C2CCCC2)c1=O [BSJ-03-123]; assay: increase in dead-cell fraction, 72 h; higher = more death;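 also: breast cancer cell lines in 384-well plates, stained with Hoechst plus LIVE/DEAD far red dye and imaged, cells above an LDR intensity threshold counted dead, Hoechst-negative corpses included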
YKL-5-124 = compound: C=CC(=O)Nc1ccc(C(=O)Nc2[nH]nc3c2CN(C(=O)N[C@H](CN(C)C)c2ccccc2)C3(C)C)cc1 [YKL-5-124]; assay: as above
[1] = compound: CCc1cnn2c(NCc3ccc[n+]([O-])c3)cc(N3CCCC[C@H]3CCO)nc12; assay: as above
THZ531 = compound: CN(C)C/C=C/C(=O)Nc1ccc(C(=O)N2CCC[C@@H](Nc3ncc(Cl)c(-c4c[nH]c5ccccc45)n3)C2)cc1 [THZ531]; assay: as above
Flavopiridol = compound: CN1CC[C@H](c2c(O)cc(O)c3c(=O)cc(-c4ccccc4Cl)oc23)[C@H](O)C1 [Flavopiridol]; assay: as above
Neratinib/HKI272 = compound: CCOc1cc2ncc(C#N)c(Nc3ccc(OCc4ccccn4)c(Cl)c3)c2cc1NC(=O)/C=C/CN(C)C [Neratinib/HKI272]; assay: as above
THZ1 = compound: CN(C)C/C=C/C(=O)Nc1ccc(C(=O)Nc2cccc(Nc3ncc(Cl)c(-c4c[nH]c5ccccc45)n3)c2)cc1 [THZ1]; assay: as above
[2] = compound: CC(=O)c1c(C)c2cnc(Nc3ccc(N4CCNCC4)cn3)nc2n(C2CCCC2)c1=O; assay: as above
LEE011/Ribociclib [3] = compound: T1, CN(C)C(=O)c1cc2cnc(Nc3ccc(N4CCNCC4)cn3)nc2n1C1CCCC1 [LEE011/Ribociclib]; assay: as above
[4] = compound: CCN1CCN(Cc2ccc(Nc3ncc(F)c(-c4cc(F)c5nc(C)n(C(C)C)c5c4)n3)nc2)CC1; assay: as above
Pictilisib/GDC0941 = compound: CS(=O)(=O)N1CCN(Cc2cc3nc(-c4cccc5[nH]ncc45)nc(N4CCOCC4)c3s2)CC1 [Pictilisib/GDC0941]
[5] = compound: CCc1cnn2c(NCc3ccc[n+]([O-])c3)cc(N3CCCC[C@H]3CCO)nc12
Doxorubicin = compound: COc1cccc2c1C(=O)c1c(O)c3c(c(O)c1C2=O)C[C@@](O)(C(=O)CO)C[C@@H]3O[C@H]1C[C@H](N)[C@H](O)[C@H](C)O1 [Doxorubicin]
Ceritinib/LDK378 = compound: Cc1cc(Nc2ncc(Cl)c(Nc3ccccc3S(=O)(=O)C(C)C)n2)c(OC(C)C)cc1C1CCNCC1 [Ceritinib/LDK378]
[6] = compound: Cc1nn(C)c(COc2ccc(N3CCN(S(=O)(=O)N(C)C)CC3)cc2)c1-c1cccc2c(CCCOc3cccc4ccccc34)c(C(=O)O)n(CCN3CCOCC3)c12
LEE011/Ribociclib [7] = compound: T1, LEE011/Ribociclib
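For GR50, 72 h in this document: breast cancer and non-malignant breast epithelial cell lines, Deep Dye Drop or Dye Drop imaging, nine half-log doses, GR normalized to time-zero plates and DMSO-only controls.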

Cell Line: ZR7530
- increase in dead-cell fraction (BSJ-03-123; 0.001 µM): 0.0025
- increase in dead-cell fraction (BSJ-03-123; 0.003162 µM): 0.0062
- increase in dead-cell fraction (BSJ-03-123; 0.01 µM): 0.0113
- increase in dead-cell fraction (BSJ-03-123; 0.03162 µM): 0.0285
- increase in dead-cell fraction (BSJ-03-123; 0.1 µM): 0.002
- increase in dead-cell fraction (BSJ-03-123; 0.3162 µM): 0.0395
- increase in dead-cell fraction (BSJ-03-123; 1 µM): 0.0336
- increase in dead-cell fraction (BSJ-03-123; 3.162 µM): 0.0895
- increase in dead-cell fraction (BSJ-03-123; 10 µM): 0.039
- increase in dead-cell fraction (YKL-5-124; 0.001 µM): 0.039
- increase in dead-cell fraction (YKL-5-124; 0.003162 µM): 0.0535
- increase in dead-cell fraction (YKL-5-124; 0.01 µM): 0.0595
- increase in dead-cell fraction (YKL-5-124; 0.03162 µM): 0.0181
- increase in dead-cell fraction (YKL-5-124; 0.1 µM): 0.0418
- increase in dead-cell fraction (YKL-5-124; 0.3162 µM): 0.04
- increase in dead-cell fraction (YKL-5-124; 1 µM): 0.0587
- increase in dead-cell fraction (YKL-5-124; 3.162 µM): 0.0125
- increase in dead-cell fraction (YKL-5-124; 10 µM): 0.105
- increase in dead-cell fraction ([1]; 0.0001 µM): -0.0019
- increase in dead-cell fraction ([1]; 0.0003162 µM): 0.0016
- increase in dead-cell fraction ([1]; 0.001 µM): -0.02
- increase in dead-cell fraction ([1]; 0.003162 µM): 0.0075
- increase in dead-cell fraction ([1]; 0.01 µM): -0.0026
- increase in dead-cell fraction ([1]; 0.03162 µM): 0.0388
- increase in dead-cell fraction ([1]; 0.1 µM): 0.103
- increase in dead-cell fraction ([1]; 0.3162 µM): 0.138
- increase in dead-cell fraction ([1]; 1 µM): 0.131
- increase in dead-cell fraction (THZ531; 0.0001 µM): 0.0074
- increase in dead-cell fraction (THZ531; 0.0003162 µM): 0.0167
- increase in dead-cell fraction (THZ531; 0.001 µM): 0.0003
- increase in dead-cell fraction (THZ531; 0.003162 µM): 0.0105
- increase in dead-cell fraction (THZ531; 0.01 µM): -0.0154
- increase in dead-cell fraction (THZ531; 0.03162 µM): -0.0168
- increase in dead-cell fraction (THZ531; 0.1 µM): 0.129
- increase in dead-cell fraction (THZ531; 0.3162 µM): 0.234
- increase in dead-cell fraction (THZ531; 1 µM): 0.0722
- increase in dead-cell fraction (Flavopiridol; 0.0001 µM): -0.0012
- increase in dead-cell fraction (Flavopiridol; 0.0003162 µM): 0.0085
- increase in dead-cell fraction (Flavopiridol; 0.001 µM): -0.0127
- increase in dead-cell fraction (Flavopiridol; 0.003162 µM): -0.0029
- increase in dead-cell fraction (Flavopiridol; 0.01 µM): 0.0104
- increase in dead-cell fraction (Flavopiridol; 0.03162 µM): 0.0159
- increase in dead-cell fraction (Flavopiridol; 0.1 µM): 0.0202
- increase in dead-cell fraction (Flavopiridol; 0.3162 µM): -0.0023
- increase in dead-cell fraction (Flavopiridol; 1 µM): 0.191
- increase in dead-cell fraction (Neratinib/HKI272; 0.0003162 µM): 0.0037
- increase in dead-cell fraction (Neratinib/HKI272; 0.001 µM): -0.0057
- increase in dead-cell fraction (Neratinib/HKI272; 0.003162 µM): -0.0122
- increase in dead-cell fraction (Neratinib/HKI272; 0.01 µM): -0.0066
- increase in dead-cell fraction (Neratinib/HKI272; 0.03162 µM): 0.0011
- increase in dead-cell fraction (Neratinib/HKI272; 0.1 µM): 0.0186
- increase in dead-cell fraction (Neratinib/HKI272; 0.3162 µM): 0.0145
- increase in dead-cell fraction (Neratinib/HKI272; 1 µM): 0.025
- increase in dead-cell fraction (Neratinib/HKI272; 3.162 µM): 0.0495
- increase in dead-cell fraction (THZ1; 0.0001 µM): 0.0034
- increase in dead-cell fraction (THZ1; 0.0003162 µM): 0.0045
- increase in dead-cell fraction (THZ1; 0.001 µM): 0
- increase in dead-cell fraction (THZ1; 0.003162 µM): -0.0128
- increase in dead-cell fraction (THZ1; 0.01 µM): 0.0019
- increase in dead-cell fraction (THZ1; 0.03162 µM): 0.0253
- increase in dead-cell fraction (THZ1; 0.1 µM): 0.0921
- increase in dead-cell fraction (THZ1; 0.3162 µM): 0.097
- increase in dead-cell fraction (THZ1; 1 µM): 0.229
- increase in dead-cell fraction ([2]; 0.0003162 µM): 0.0003
- increase in dead-cell fraction ([2]; 0.001 µM): -0.0021
- increase in dead-cell fraction ([2]; 0.003162 µM): 0.0019
- increase in dead-cell fraction ([2]; 0.01 µM): -0.0031
- increase in dead-cell fraction ([2]; 0.03162 µM): 0.0102
- increase in dead-cell fraction ([2]; 0.1 µM): 0.0763
- increase in dead-cell fraction ([2]; 0.3162 µM): 0.0662
- increase in dead-cell fraction ([2]; 1 µM): 0.0375
- increase in dead-cell fraction ([2]; 3.162 µM): 0.0348
- increase in dead-cell fraction (LEE011/Ribociclib [3]; 0.001 µM): 0.0122
- increase in dead-cell fraction (LEE011/Ribociclib [3]; 0.003162 µM): 0.0504
- increase in dead-cell fraction (LEE011/Ribociclib [3]; 0.01 µM): 0.0152
- increase in dead-cell fraction (LEE011/Ribociclib [3]; 0.03162 µM): 0.0426
- increase in dead-cell fraction (LEE011/Ribociclib [3]; 0.1 µM): 0.0177
- increase in dead-cell fraction (LEE011/Ribociclib [3]; 0.3162 µM): 0.0519
- increase in dead-cell fraction (LEE011/Ribociclib [3]; 1 µM): 0.0531
- increase in dead-cell fraction (LEE011/Ribociclib [3]; 3.162 µM): 0.0382
- increase in dead-cell fraction (LEE011/Ribociclib [3]; 10 µM): 0.0703
- increase in dead-cell fraction ([4]; 0.001 µM): 0.0055
- increase in dead-cell fraction ([4]; 0.003162 µM): -0.0075
- increase in dead-cell fraction ([4]; 0.01 µM): 0.0272
- increase in dead-cell fraction ([4]; 0.03162 µM): 0.0826
- increase in dead-cell fraction ([4]; 0.1 µM): 0.0398
- increase in dead-cell fraction ([4]; 0.3162 µM): 0.0332
- increase in dead-cell fraction ([4]; 1 µM): 0.0706
- increase in dead-cell fraction ([4]; 3.162 µM): 0.0448
- increase in dead-cell fraction ([4]; 10 µM): 0.0361
- GR50, 72 h (Pictilisib/GDC0941): 0.217 µM
- GR50, 72 h [5]: 0.0163 µM
- GR50, 72 h (Doxorubicin): 0.0148 µM
- GR50, 72 h (Ceritinib/LDK378): 1.75 µM
- GR50, 72 h [6]: > 10 µM
- GR50, 72 h (LEE011/Ribociclib [7]): 0.692 µM
